Data from patent US20260216133A1, “AEROSOL COMPRISING 5-METHOXY-N,N-DIMETHYLTRYPTAMINE” (GH Research Ireland Limited, priority 2020, published 2026).
Several values for one entry are separate records, joined by “and”; a condition that tells them apart may be missing. Identical values can stand only once.

Experiments:
[1] = Degradation products of 5-MeO-DMT aerosol by HPLC after SPE extraction; details: 18 mg capsule, 210° C. aerosolization, Replicate 1, Extract 1; including the additional amount of Impurity 1
[2] = Particle size distribution of 5-MeO-DMT aerosol, Next Generation Impactor (NGI); type: physicochemical
Experimental: The particle size distribution of 5-MeO-DMT aerosol particles as generated according to the compositions and methods of the present invention are determined according to United States Pharmacopeia (USP) methods using the Next Generation Impactor (NGI) (United States Pharmacopeia (USP)<601> Apparatus 6) as shown in FIG. 2.
This device fractionates the bolus aerosol delivered into a discrete series of size ranges on the basis of particle or droplet inertia and provides a measure of the aerodynamic diameter of the aerosol droplets produced. The droplet size range captured by each stage in the NGI can be dependent on the measured airflow used. For the present analysis, experiments are carried out using an airflow of 30 liters/minute (Experiments 1 and 3) and of 15 liters/minute (Experiments 2 and 4).
Based on a log-normal distribution of particle sizes, the aerodynamic size distribution is characterized by the mass median aerodynamic diameter (MMAD) and geometric standard deviation (GSD). Moreover, the fine particle fraction (FPF) is determined as the weight percentage of droplets having an aerodynamic diameter of less than or equal to 5 μm, relative to the total of droplets on the impactor.
A first experiment is carried out using a Volcano Medic Vaporization System as described in Example 1 with dosing capsules having a nominal drug load of 6 mg 5-MeO-DMT free base/capsule. The aerosol recovered in the balloon is measured using the NGI operated using a flow rate of 30 liters/min.
A second experiment is carried also out using a Volcano Medic Vaporization System as described in Example 1 with dosing capsules having a nominal drug load of 6 mg 5-MeO-DMT free base/capsule. The aerosol recovered in the balloon is measured using the NGI operated using a flow rate of 15 liters/min.
In this experiment, NGI cups were coated with glycerol to prevent possible droplet re-entrainment. In addition, approximately 8 drops of 30% glycerol in water were added to each filter paper located underneath the corresponding NGI Stage Jets.

[3] = Aerosol 5-MeO-DMT mass density (aerosolized dose/aerosol volume); type: physicochemical; details: aerosol volume about 3 liters
Experimental: The aerosol 5-MeO-DMT mass density can be calculated as follows: Aerosol 5-MeO-DMT mass density =Aerosolized dose/Aerosol volume. For the aerosolized dose data and the aerosol volume of about 3 liters from Example 2, the following aerosol 5-MeO-DMT mass density was determined: […]

[4] = Aerosol particle formation rate (aerosolized dose/aerosolization time); type: physicochemical; details: aerosolization time 15 seconds
Experimental: The aerosol particle formation rate can be calculated as follows: Aerosol particle formation rate=Aerosolized dose/Aerosolization time. For the aerosolized dose data and the aerosolization time of 15 seconds from Example 2, the following aerosol particle formation rate was determined: […]

[5] = Aerosolization of 5-MeO-DMT from dosing capsules (Volcano Medic), aerosolized dose by weighing; details: triplicate capsules; for Aerosolized dose: 210° C., 12 l/min, 15 seconds
[6] = Experiment 1: 6 mg/capsule, NGI 30 liters/min, mean of 3 runs
[7] = Experiment 1: 6 mg/capsule, NGI 30 liters/min, single runs
[8] = Experiment 2: 6 mg/capsule, NGI 15 liters/min, Mean (Runs 1-3)
[9] = Experiment 2: 6 mg/capsule, NGI 15 liters/min, Mean (Runs 2, 3)
[10] = Experiment 3: 18 mg/capsule, NGI 30 liters/min, mean of 3 runs
[11] = Experiment 3: 18 mg/capsule, NGI 30 liters/min, single runs
[12] = Experiment 4: 18 mg/capsule, NGI 15 liters/min, glycerol-coated cups, single runs
[13] = Experiment 4: 18 mg/capsule, NGI 15 liters/min, mean of 3 runs

For COc1ccc2[nH]cc(CCN(C)C)c2c1 [5-MeO-DMT, 5-methoxy-N,N-dimethyltryptamine], the “total percentage of 5-MeO-DMT degradation products in the aerosol” value [1] was 0.19%, the FPF [2, 6] was 97.95% and the GSD [2, 6] was 3.49. The MMAD [2, 6] was 0.40 μm, the GSD [2, 7] was 4.70 and 3.05 and 2.71 and the MMAD [2, 7] was 0.33 μm and 0.46 μm and 0.42 μm. For the same compound, the FPF ([2]; Experiment 1: 6 mg/capsule, NGI 30 liters/min, single runs, droplets <= 5 μm) was 96.19% and 98.35% and 99.31%, the FPF [2, 8] was 94.85% and the GSD [2, 8] was 4.63. For the same compound, the MMAD [2, 8] was 0.57 μm, the FPF [2, 9] was 94.67% and the GSD [2, 9] was 3.20. The MMAD [2, 9] was 0.77 μm, the FPF ([2]; Experiment 2: 6 mg/capsule, NGI 15 liters/min, glycerol-coated cups, single runs, Run 1 may not be reliable) was 95.22% and 93.54% and 95.79% and the FPF [2, 10] was 94.64%. For the same compound, the GSD [2, 10] was 2.65, the MMAD [2, 10] was 1.05 μm and the FPF [2, 11] was 93.13% and 94.08% and 96.72%. The GSD [2, 11] was 2.98 and 2.52 and 2.44, the MMAD [2, 11] was 0.98 μm and 1.19 μm and 0.97 μm and the FPF [2, 12] was 93.23% and 92.66% and 91.40%. The GSD [2, 12] was 2.66 and 2.77 and 2.10, the MMAD [2, 12] was 1.16 μm and 1.14 μm and 1.82 μm and the FPF [2, 13] was 92.43%. The GSD [2, 13] was 2.51, the MMAD [2, 13] was 1.37 μm and the “Aerosol 5-MeO-DMT mass density” value ([3]; target dosage 2 mg) was 0.62 mg/L. For the same compound, the “Aerosol 5-MeO-DMT mass density” value ([3]; target dosage 18 mg) was 5.45 mg/L and 5.38 mg/L and 5.43 mg/L, the “Aerosol particle formation rate” value ([4]; target dosage 2 mg) was 0.12 mg/s and the “Aerosol particle formation rate” value ([4]; target dosage 18 mg) was 1.09 mg/s and 1.08 mg/s. For the same compound, the “Aerosolized dose, % of loaded dose” value ([5]; target dosage 2 mg) was 100.5% and 99.5%, the Aerosolized dose ([5]; target dosage 2 mg) was 1.9 mg and the “Aerosolized dose, % of loaded dose” value ([5]; target dosage 18 mg) was 96.3% and 96.5% and 95.9%. The Aerosolized dose ([5]; target dosage 18 mg) was 16.3 mg and 16.2 mg.
